{"source": "patent EP0010299A1", "about": "“Pharmaceutical composition useful for the treatment of hypercholesteremia” (Merck & Co., Inc., priority 1978, dated 1980)", "key": {"plasma cholesterol": {"tested_on": "plasma cholesterol", "assay": "Combination of compound (II) with cholestyramine in dogs, plasma cholesterol", "format": "in vivo, Male beagles", "method": "Male beagles, ranging in weight from 7 to 14 kg. (average 11 kg.), were fed a semi-synthetic diet six weeks prior to the start of the experiment and serum cholesterol levels determined colorimetrically each week in order to obtain base-line values for each dog. At the start of the treatment, animals were divided into three treatment groups. Group A (4 dogs) received 25 mg./kg./day of compound (II) mixed in the diet. Group B (4 dogs) received 12 g./dog/day of cholestyramine mixed' in the diet. Group C (5 dogs) was the untreated control. Treatment was for four weeks, and plasma cholesterol was determined two times per week. After four weeks a combination of compound (II) and cholestyramine was given to dogs in Groups A and B mixed in the diet at 25 mg./kg. and 12 g./dog/day respectively for an additional four weeks. Cholesterol levels were detorminod two times per week during this period."}, "HMG-CoA reductase [1]": {"tested_on": "HMG-CoA reductase", "settings": "fed rats three hours following the administration; Bensch et al. 1978; cited from earlier work"}, "HMG-CoA reductase [2]": {"molecular_target": "T1, HMG-CoA reductase (Rattus norvegicus, UniProt P51639)", "T1 sequence (P51639 1-887)": "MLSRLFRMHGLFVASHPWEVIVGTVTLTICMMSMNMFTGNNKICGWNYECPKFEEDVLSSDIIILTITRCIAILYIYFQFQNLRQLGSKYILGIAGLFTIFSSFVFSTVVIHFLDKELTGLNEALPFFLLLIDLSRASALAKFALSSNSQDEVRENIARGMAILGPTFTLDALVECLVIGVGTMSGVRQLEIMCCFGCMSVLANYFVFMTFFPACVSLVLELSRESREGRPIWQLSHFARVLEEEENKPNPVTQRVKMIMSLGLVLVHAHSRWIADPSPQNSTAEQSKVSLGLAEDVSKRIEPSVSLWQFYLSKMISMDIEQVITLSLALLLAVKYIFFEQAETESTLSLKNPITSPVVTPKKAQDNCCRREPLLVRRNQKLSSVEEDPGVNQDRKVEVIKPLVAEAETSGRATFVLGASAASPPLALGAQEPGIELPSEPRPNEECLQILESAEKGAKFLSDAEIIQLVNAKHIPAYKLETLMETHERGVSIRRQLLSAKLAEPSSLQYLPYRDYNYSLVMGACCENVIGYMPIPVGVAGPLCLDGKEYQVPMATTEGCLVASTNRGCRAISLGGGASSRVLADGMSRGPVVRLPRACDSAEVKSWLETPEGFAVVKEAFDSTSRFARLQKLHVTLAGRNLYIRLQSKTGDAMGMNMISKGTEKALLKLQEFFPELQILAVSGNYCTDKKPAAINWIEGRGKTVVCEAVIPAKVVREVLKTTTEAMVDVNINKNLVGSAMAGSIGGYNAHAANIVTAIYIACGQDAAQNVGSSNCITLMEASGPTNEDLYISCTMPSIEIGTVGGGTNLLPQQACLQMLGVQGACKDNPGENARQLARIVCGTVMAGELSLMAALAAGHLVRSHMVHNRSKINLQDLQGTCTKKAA", "settings": "reductase enzyme; no unit printed (molar concentration); read-out: ED50 in the inhibition test; cited from earlier work"}, "serum sterol levels": {"tested_on": "serum sterol levels", "settings": "Bensch et al. 1978, cited from earlier work"}, "serum cholesterol": {"tested_on": "serum cholesterol", "settings": "acutely treated rat; Endo et al. 1976; cited from earlier work"}, "[3]": {"settings": "Group A average (4 dogs), compound (II) 25 mg./kg./day mixed in the diet, 4 weeks"}, "[4]": {"settings": "Group A, individual dogs, compound (II) 25 mg./kg./day mixed in the diet, 4 weeks"}}, "note": "Values joined by “and” are separate entries in the source; they are usually repeats but may differ in a detail not shown here. Identical values can stand only once.", "data": [{"smiles": "CCC(C)C(=O)OC1CCC=C2C=CC(C)C(CCC3CC(O)CC(=O)O3)C21", "note": "(centres unmarked) [compound (II), 1,2,3,7,8,8a-hexahydro-7-methyl-8-[2-(3,4,5,6-tetra-hydro-4-hydroxy-6-oxo-2H-pyran-2-yl]ethyl)-1-naphthyl 2-methyl butanoate]", "values": [{"measurement": "reduction in plasma cholesterol level plateauing by four weeks", "setting": "plasma cholesterol; Fig. 1, Group A, 25 mg./kg./day of compound (II)", "result": "36 % of control"}, {"measurement": "PLASMA CHOLESTEROL, 4 Weeks, % change from Start, average", "setting": "plasma cholesterol; [3]", "result": -35.6, "unit": "%"}, {"measurement": "PLASMA CHOLESTEROL, 4 Weeks, average", "setting": "plasma cholesterol; [3]", "result": 82.5, "unit": "mg/dL"}, {"measurement": "PLASMA CHOLESTEROL, 4 Weeks", "setting": "plasma cholesterol; [4]", "result": "76 mg./dl and 70 mg./dl and 92 mg./dl (2×)"}, {"measurement": "PLASMA CHOLESTEROL, 4 Weeks, % change from Start", "setting": "plasma cholesterol; [4]", "result": "-36.7% and -30.7% and -40.4% and -34.3%"}, {"measurement": "decrease of plasma cholesterol, average", "setting": "plasma cholesterol; four weeks single agent in the diet: compound (II) 25 mg./kg. (Group A), cholestyramine 12 g./dog/day (Group B)", "result": 35.6, "unit": "%"}, {"measurement": "HMG-CoA reductase", "setting": "HMG-CoA reductase [1]", "result": "marked increase"}, {"measurement": "IC50", "setting": "HMG-CoA reductase [2]", "result": "~10", "unit": "nM"}, {"measurement": "liver or liver microsomal cholesterol concentration", "setting": "serum sterol levels", "result": "no change"}, {"measurement": "effect on serum sterol levels", "setting": "serum sterol levels; compared with fed or fasted controls", "result": "no effect"}, {"measurement": "serum cholesterol levels", "setting": "serum cholesterol", "result": "reduced"}]}]}
